This is an account of results in ChEMBL document CHEMBL1201862, “PubChem BioAssay data set” (2004).

Some test systems named below: SF-295; SF-539; OVCAR-4; HCT-15; NCI/ADR-RES; A549; CAKI-1; OVCAR-3; EKVX; MOLT-4; CCRF-CEM; RPMI-8226; SNB-75; NCI-H460; HCT-116; BT-549; Malme-3M; TK-10; HOP-62; RXF 393.
Test in all cases: NCI-60 cell line screen, 48 h

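Five concentrations, 48 hours, 96-well plates. GI50 = concentration required for 50% inhibition of growth.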 Calls of active or inactive are those of the source. No stated cut-off is given here; in the data, active = GI50 up to about 1.1 µM and inactive = higher. Where a SMILES comes first, the peptide text is derived from it. [ ]: non-standard residue; d: D form. ξ: configuration not given here. ξThz(5,5-Me2) = CC1(C)SCNC1C(=O)O

Take `COC(=O)c1ccc(NCc2c(O)ccc(O)c2Br)cc1Cl`: the GI50 in the assay with SF-295 is 18.9 µM (inactive); in the assay on SF-539, 14.2 µM (inactive); in the assay with OVCAR-4, 18.2 µM (inactive); with HCT-15 it was 16.6 µM; with NCI/ADR-RES it was 12.2 µM (inactive); in the assay with A549, 54.7 µM (inactive). Also, the GI50 with CAKI-1 was 15.8 µM (inactive); with OVCAR-3 it was 8.77 µM (inactive); in the assay with EKVX it was 14.6 µM (inactive); in the assay with MOLT-4, 1.36 µM (inactive); in the assay with CCRF-CEM, 0.367 µM (active); in the assay with RPMI-8226, 3.56 µM (inactive). Moreover, the GI50 is 23.1 µM (inactive) in the assay with SNB-75; 18.7 µM (inactive) in the assay with NCI-H460; 17.8 µM (inactive) in the assay on HCT-116; 11.2 µM (inactive) with BT-549; 18.3 µM (inactive) in the assay with Malme-3M.

As for `CC1(C)OB(O)OC1(C)C`, the GI50 with SF-295 is > 100 µM (inactive); with TK-10, > 100 µM (inactive); in the assay on SF-539, > 100 µM (inactive); in the assay on OVCAR-4, > 100 µM (inactive); in the assay on HCT-15, more than 100 µM; in the assay on A549, > 100 µM (inactive). The GI50 with CAKI-1, with OVCAR-3, in the assay on EKVX, in the assay with MOLT-4, with HOP-62 and with CCRF-CEM was > 100 µM (inactive) in each case. Also, the GI50 with RXF 393, in the assay with RPMI-8226, with SNB-75, with NCI-H460, in the assay with HCT-116 and in the assay with Malme-3M was > 100 µM (inactive) throughout.

On to `CCOC(=O)c1c(C)n(Cc2ccccc2)c2c1cc(O)c1[nH]c3c(c12)CCCC3`, for which the GI50 is 3.37 µM (inactive) in the assay with SF-295; 10.6 µM (inactive) in the assay with TK-10; 1.95 µM (inactive) in the assay on SF-539; 1.07 µM (active) in the assay on OVCAR-4; 2.2 µM in the assay on HCT-15; 4.72 µM (inactive) in the assay on NCI/ADR-RES. Further, the GI50 in the assay on A549 was 6.52 µM (inactive); in the assay with CAKI-1, 10.6 µM (inactive); with OVCAR-3, 2.2 µM (inactive); with EKVX, 2.69 µM (inactive); in the assay with MOLT-4 it was 2.43 µM (inactive); with HOP-62 it was 11.7 µM (inactive). The GI50 in the assay with CCRF-CEM was 2.37 µM (inactive); with RPMI-8226 it was 2.14 µM (inactive); in the assay on NCI-H460, 2.82 µM (inactive); with HCT-116 it was 6.1 µM (inactive); in the assay with BT-549, 11.7 µM (inactive); with Malme-3M, 3.79 µM (inactive).

As to `O=c1[nH]c2nc3ccccc3c(=O)n2/c1=C/c1ccco1`, the GI50 is > 100 µM (inactive) in the assay on SF-295; > 100 µM (inactive) in the assay with TK-10; > 100 µM (inactive) with SF-539; > 100 µM (inactive) with OVCAR-4; more than 100 µM in the assay on HCT-15; > 100 µM (inactive) in the assay with NCI/ADR-RES. In addition, the GI50 with A549, in the assay with CAKI-1, in the assay with OVCAR-3, with EKVX, in the assay on MOLT-4 and with HOP-62 was > 100 µM (inactive) throughout. The GI50 in the assay on CCRF-CEM, with RPMI-8226, in the assay with SNB-75, with HCT-116, in the assay with BT-549 and in the assay on Malme-3M was > 100 µM (inactive) throughout.

Consider `CN(C)CCCNc1cnc2cc3ccccc3cc2n1`, for which the GI50 in the assay on SF-295 is 20.7 µM (inactive); in the assay on TK-10, 27 µM (inactive); in the assay on SF-539, 23.5 µM (inactive); in the assay on OVCAR-4, 23.8 µM (inactive); with HCT-15 it was 18.4 µM; with A549, 26 µM (inactive). In addition, the GI50 with CAKI-1 is 22.4 µM (inactive); in the assay with OVCAR-3 it was 17.6 µM (inactive); with EKVX, 28 µM (inactive); in the assay with MOLT-4 it was 28.4 µM (inactive); in the assay with HOP-62, 26.2 µM (inactive); in the assay on CCRF-CEM, 42 µM (inactive). Further, the GI50 is 21.6 µM (inactive) with RXF 393; 33.3 µM (inactive) in the assay with RPMI-8226; 23.7 µM (inactive) in the assay on SNB-75; 33.3 µM (inactive) in the assay with NCI-H460; 32.8 µM (inactive) with HCT-116; 15.3 µM (inactive) in the assay with BT-549. Moreover, the GI50 in the assay with Malme-3M is 14.1 µM (inactive).

As to `Cc1cc(C)nc(NS(=O)(=O)c2ccc(NC(=O)c3cccc4c(Nc5ccc(S(=O)(=O)N=C(N)N)cc5)c5ccccc5nc34)cc2)n1`, the GI50 is 27.4 µM (inactive) in the assay on SF-295; 34.8 µM (inactive) in the assay with TK-10; 17.3 µM (inactive) in the assay on SF-539; 14.5 µM (inactive) in the assay with OVCAR-4; 30.1 µM in the assay with HCT-15; 62.5 µM (inactive) with A549. Also, the GI50 was 20.5 µM (inactive) in the assay on CAKI-1; 10.5 µM (inactive) in the assay with OVCAR-3; 35 µM (inactive) with EKVX; 32.8 µM (inactive) with MOLT-4; 37.8 µM (inactive) with HOP-62; 45.6 µM (inactive) in the assay on CCRF-CEM. Moreover, the GI50 is 15.6 µM (inactive) in the assay on RXF 393; 15.1 µM (inactive) in the assay on RPMI-8226; 38 µM (inactive) with SNB-75; 83.6 µM (inactive) in the assay with NCI-H460; 32.4 µM (inactive) in the assay with HCT-116; > 100 µM (inactive) in the assay on Malme-3M.

As to `CC[C@H](C)C1=C(OC(C)=O)[N@+]2([O-])Oc3ccc(-c4c(OC(C)=O)c(OC(C)=O)c(-c5ccc(OC(C)=O)cc5)c(OC(C)=O)c4OC(C)=O)cc3O[C@]2([C@@H](C)CC)C(=O)N1OC(C)=O`, the GI50 with SF-295 is 9.25 µM (inactive); in the assay with TK-10 it was 15.6 µM (inactive); with SF-539 it was 11.2 µM (inactive); with OVCAR-4, 12.2 µM (inactive); in the assay on HCT-15 it was 15.5 µM; with NCI/ADR-RES, 17.9 µM (inactive). Further, the GI50 is 12.7 µM (inactive) with A549; 20 µM (inactive) with CAKI-1; 9.29 µM (inactive) with OVCAR-3; 5.45 µM (inactive) in the assay on EKVX; 11.6 µM (inactive) in the assay with MOLT-4; 0.294 µM (active) in the assay on CCRF-CEM. Moreover, the GI50 was 38.3 µM (inactive) with RXF 393; 9.2 µM (inactive) in the assay on RPMI-8226; 12 µM (inactive) in the assay on SNB-75; 20 µM (inactive) in the assay with NCI-H460; 15.2 µM (inactive) in the assay on HCT-116; 15.2 µM (inactive) with Malme-3M.

For `CC(=O)N(O)c1ccc(-c2nc3ccccc3s2)cc1`, the GI50 in the assay with SF-295 was 45.2 µM (inactive); with TK-10, 80.7 µM (inactive); in the assay on OVCAR-4 it was 28.2 µM (inactive); with HCT-15, more than 100 µM; in the assay with NCI/ADR-RES, 28.4 µM (inactive); with A549, 42.6 µM (inactive). In addition, the GI50 was 95.1 µM (inactive) in the assay with CAKI-1; 52.2 µM (inactive) in the assay with OVCAR-3; 48.6 µM (inactive) in the assay with MOLT-4; 42.1 µM (inactive) with HOP-62; > 100 µM (inactive) with CCRF-CEM; 61.8 µM (inactive) in the assay with RXF 393. The GI50 was 15 µM (inactive) with RPMI-8226; 33 µM (inactive) with SNB-75; 46.9 µM (inactive) with NCI-H460; 68.5 µM (inactive) with HCT-116; 31.3 µM (inactive) with Malme-3M.

With `CC1SCc2nc3ccccc3n21` (configuration not stated), the GI50 in the assay with SF-295 was > 100 µM (inactive); in the assay on TK-10, > 100 µM (inactive); with SF-539, > 100 µM (inactive); in the assay with OVCAR-4, > 100 µM (inactive); in the assay on HCT-15, more than 100 µM; in the assay on NCI/ADR-RES, > 100 µM (inactive). The GI50 with A549, with CAKI-1, with OVCAR-3, in the assay with EKVX, in the assay with MOLT-4 and with HOP-62 was > 100 µM (inactive) throughout. Further, the GI50 is > 100 µM (inactive) in the assay on CCRF-CEM; > 100 µM (inactive) with RXF 393; > 100 µM (inactive) in the assay with RPMI-8226; 0.284 µM (active) in the assay on SNB-75; > 100 µM (inactive) in the assay with NCI-H460; > 100 µM (inactive) in the assay on HCT-116. In addition, in the assay with Malme-3M, the GI50 is > 100 µM (inactive).

Consider `CCCCN(CCCC)CC(O)c1cc(-c2ccc(Cl)c(Cl)c2)nc2c(Cl)cc(Cl)cc12` (configuration not stated), for which the GI50 is > 100 µM (inactive) in the assay with SF-295; > 100 µM (inactive) in the assay on TK-10; > 100 µM (inactive) in the assay on SF-539; > 100 µM (inactive) in the assay on OVCAR-4; 45.1 µM in the assay on HCT-15; > 100 µM (inactive) in the assay with NCI/ADR-RES. Also, the GI50 is > 100 µM (inactive) in the assay on OVCAR-3; 49.1 µM (inactive) in the assay on EKVX; 46.2 µM (inactive) in the assay with MOLT-4; 66.5 µM (inactive) in the assay with HOP-62; 65.3 µM (inactive) in the assay with CCRF-CEM; 37.1 µM (inactive) in the assay on RPMI-8226. The GI50 with SNB-75, with NCI-H460, with HCT-116 and in the assay on Malme-3M was > 100 µM (inactive) throughout.

As for `CSCC[C@H](NC(=O)[C@H](CC(C)C)NC(=O)[C@H](Cc1c[nH]cn1)NC(=O)CNC(=O)C1N(C(=O)[C@@H](C)NC(=O)[C@H](Cc2c[nH]c3ccccc23)NC(=O)[C@H](CCC(N)=O)NC(=O)[C@@H](N)CC(N)=O)CSC1(C)C)C(N)=O` (some centres not stated) (H-NQW[dA][ξThz(5,5-Me2)]GHLM-NH2), the GI50 was > 25 µM (inactive) with SF-295; > 25 µM (inactive) in the assay on TK-10; > 25 µM (inactive) with SF-539; > 25 µM (inactive) with OVCAR-4; more than 25 µM in the assay with HCT-15; > 25 µM (inactive) in the assay with NCI/ADR-RES. The GI50 with A549, in the assay on CAKI-1, in the assay with OVCAR-3, in the assay on EKVX, with MOLT-4 and in the assay with HOP-62 was > 25 µM (inactive) throughout. Moreover, the GI50 in the assay on CCRF-CEM, in the assay on RXF 393, in the assay on RPMI-8226, in the assay on SNB-75, in the assay on NCI-H460 and in the assay on HCT-116 was > 25 µM (inactive) throughout. For the same molecule, the GI50 in the assay with Malme-3M was > 25 µM (inactive).
